Laboratory results reported in article PMC9482650, “Quantitative fragmentomics allow affinity mapping of interactomes” (Nature Communications, 2022).
Ends that are not written are not given here.

Assays:
Experiment in all cases: Holdup assay
Type in all cases: binding
[1] = molecular target: FRMPD2_2 PDZ (Homo sapiens, UniProt Q68DX3); conditions: composite holdup affinity; 0.00=below quantification threshold; read-out: COMP pKd (converted)
[2] = molecular target: LAP2 PDZ (Homo sapiens, UniProt Q96RT1); conditions: composite holdup affinity; 0.00=below quantification threshold; read-out: COMP pKd (converted)
Sequence of LAP2 PDZ (Q96RT1 1321-1410 limits assumed): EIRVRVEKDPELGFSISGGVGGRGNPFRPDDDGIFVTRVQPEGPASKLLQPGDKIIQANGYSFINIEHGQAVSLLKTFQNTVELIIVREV

[3] = molecular target: SNTG1 PDZ (Homo sapiens, UniProt Q9NSN8); conditions: composite holdup affinity; 0.00=below quantification threshold; read-out: COMP pKd (converted)
Sequence of SNTG1 PDZ (Q9NSN8 57-140 limits assumed): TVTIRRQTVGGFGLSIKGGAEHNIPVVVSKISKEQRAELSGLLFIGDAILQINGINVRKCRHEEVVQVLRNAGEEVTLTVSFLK

[4] = molecular target: GOPC PDZ (Homo sapiens, UniProt Q9HD26); conditions: composite holdup affinity; 0.00=below quantification threshold; read-out: COMP pKd (converted)
[5] = molecular target: SNTB1 PDZ (Homo sapiens, UniProt Q13884); conditions: composite holdup affinity; 0.00=below quantification threshold; read-out: COMP pKd (converted)
Sequence of SNTB1 PDZ (Q13884 112-195 limits assumed): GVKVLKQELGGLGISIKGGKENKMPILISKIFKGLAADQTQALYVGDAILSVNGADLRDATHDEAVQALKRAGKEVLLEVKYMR

[6] = molecular target: DLG4_3 PDZ (Homo sapiens, UniProt P78352); conditions: composite holdup affinity; 0.00=below quantification threshold; read-out: COMP pKd (converted)
Sequence of DLG4_3 PDZ (P78352 313-393 limits assumed): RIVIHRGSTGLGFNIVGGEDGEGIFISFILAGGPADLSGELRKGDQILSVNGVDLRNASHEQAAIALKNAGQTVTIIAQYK

[7] = molecular target: SNTG2 PDZ (Homo sapiens, UniProt Q9NY99); conditions: composite holdup affinity; 0.00=below quantification threshold; read-out: COMP pKd (converted)
Sequence of SNTG2 PDZ (Q9NY99 73-156 limits assumed): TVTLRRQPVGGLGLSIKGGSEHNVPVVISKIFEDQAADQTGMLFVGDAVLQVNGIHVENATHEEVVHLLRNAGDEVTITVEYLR

[8] = molecular target: T1, SYNJ2BP PDZ (Homo sapiens, UniProt P57105); conditions: composite holdup affinity; 0.00=below quantification threshold; read-out: COMP pKd (converted)
T1 sequence (P57105 13-100 limits assumed): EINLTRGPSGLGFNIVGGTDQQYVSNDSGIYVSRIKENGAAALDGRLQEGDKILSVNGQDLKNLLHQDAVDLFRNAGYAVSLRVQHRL

[9] = molecular target: LNX2_2 PDZ (Homo sapiens, UniProt Q8N448); conditions: composite holdup affinity; 0.00=below quantification threshold; read-out: COMP pKd (converted)
Sequence of LNX2_2 PDZ (Q8N448 339-422 limits assumed): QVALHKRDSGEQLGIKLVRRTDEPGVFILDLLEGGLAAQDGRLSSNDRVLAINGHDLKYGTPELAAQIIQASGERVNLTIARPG

[10] = molecular target: MAGI2_2 PDZ (Homo sapiens, UniProt Q86UL8); conditions: composite holdup affinity; 0.00=below quantification threshold; read-out: COMP pKd (converted)
Sequence of MAGI2_2 PDZ (Q86UL8 426-510 limits assumed): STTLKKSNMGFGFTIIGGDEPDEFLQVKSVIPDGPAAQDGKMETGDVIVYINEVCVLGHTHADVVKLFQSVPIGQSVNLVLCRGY

[11] = molecular target: DLG2_1 PDZ (Homo sapiens, UniProt Q15700); conditions: sheet PPI_convert; read-out: affinity to PDZ DLG2_1 (converted)
Sequence of DLG2_1 PDZ (Q15700 98-184): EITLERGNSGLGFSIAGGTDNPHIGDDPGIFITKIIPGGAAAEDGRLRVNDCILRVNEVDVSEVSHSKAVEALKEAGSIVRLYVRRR

[12] = molecular target: MAGI2_5 PDZ (Homo sapiens, UniProt Q86UL8); conditions: composite holdup affinity; 0.00=below quantification threshold; read-out: COMP pKd (converted)
Sequence of MAGI2_5 PDZ (Q86UL8 920-1010 limits assumed): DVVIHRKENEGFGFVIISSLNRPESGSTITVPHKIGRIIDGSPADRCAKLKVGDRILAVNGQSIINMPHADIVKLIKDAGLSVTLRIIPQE

[13] = molecular target: ARHGEF12 PDZ (Homo sapiens, UniProt Q9NZN5); conditions: composite holdup affinity; 0.00=below quantification threshold; read-out: COMP pKd (converted)
Sequence of ARHGEF12 PDZ (Q9NZN5 72-151 limits assumed): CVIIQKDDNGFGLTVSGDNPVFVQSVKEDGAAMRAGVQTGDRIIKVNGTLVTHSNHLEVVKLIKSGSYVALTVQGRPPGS

[14] = molecular target: MPP1 PDZ (Homo sapiens, UniProt Q00013); conditions: sheet PPI_convert; read-out: affinity to PDZ MPP1 (converted)
Sequence of MPP1 PDZ (Q00013 71-152 limits assumed): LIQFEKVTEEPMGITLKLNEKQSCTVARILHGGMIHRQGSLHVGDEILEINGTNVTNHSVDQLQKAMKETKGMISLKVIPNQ

[15] = molecular target: GIPC2 PDZ (Homo sapiens, UniProt Q8TF65); conditions: composite holdup affinity; 0.00=below quantification threshold; read-out: COMP pKd (converted)
Sequence of GIPC2 PDZ (Q8TF65 117-197 limits assumed): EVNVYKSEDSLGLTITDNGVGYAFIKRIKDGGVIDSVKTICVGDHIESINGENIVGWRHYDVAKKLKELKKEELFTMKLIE

[16] = molecular target: SCRIB_1 PDZ (Homo sapiens, UniProt Q14160); conditions: composite holdup affinity; 0.00=below quantification threshold; read-out: COMP pKd (converted)
Sequence of SCRIB_1 PDZ (Q14160 728-815 limits assumed): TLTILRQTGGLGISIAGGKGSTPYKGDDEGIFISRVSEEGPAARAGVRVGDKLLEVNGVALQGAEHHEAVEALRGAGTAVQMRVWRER

[17] = molecular target: T2, SCRIB2 PDZ (Homo sapiens, UniProt Q14160); conditions: composite holdup affinity; 0.00=below quantification threshold; read-out: COMP pKd (converted)
T2 sequence (Q14160 862-950 limits assumed): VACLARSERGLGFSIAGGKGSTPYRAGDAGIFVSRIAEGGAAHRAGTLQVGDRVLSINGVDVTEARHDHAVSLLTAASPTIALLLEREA

[18] = molecular target: RHPN1 PDZ (Homo sapiens, UniProt Q8TCX5); conditions: composite holdup affinity; 0.00=below quantification threshold; read-out: COMP pKd (converted)
Sequence of RHPN1 PDZ (Q8TCX5 513-592 limits assumed): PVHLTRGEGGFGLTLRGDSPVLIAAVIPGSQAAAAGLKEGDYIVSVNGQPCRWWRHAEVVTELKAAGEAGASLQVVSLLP

[19] = molecular target: PDZD7_3 PDZ (Homo sapiens, UniProt Q9H5P4); conditions: composite holdup affinity; 0.00=below quantification threshold; read-out: COMP pKd (converted)
Sequence of PDZD7_3 PDZ (Q9H5P4 862-934 limits assumed): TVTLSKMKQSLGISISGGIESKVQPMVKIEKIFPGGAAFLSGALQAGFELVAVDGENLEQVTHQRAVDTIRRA

[20] = molecular target: NHERF3_1 PDZ (Homo sapiens, UniProt Q5T2W1); conditions: composite holdup affinity; 0.00=below quantification threshold; read-out: COMP pKd (converted)
Sequence of NHERF3_1 PDZ (Q5T2W1 9-90 limits assumed): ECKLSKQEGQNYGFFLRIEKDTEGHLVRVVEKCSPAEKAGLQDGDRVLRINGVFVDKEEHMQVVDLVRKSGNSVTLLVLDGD

[21] = molecular target: ARHGEF11 PDZ (Homo sapiens, UniProt O15085); conditions: composite holdup affinity; 0.00=below quantification threshold; read-out: COMP pKd (converted)
Sequence of ARHGEF11 PDZ (O15085 47-126 limits assumed): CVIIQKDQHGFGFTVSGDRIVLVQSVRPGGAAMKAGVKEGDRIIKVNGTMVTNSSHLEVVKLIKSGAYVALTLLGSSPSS

[22] = molecular target: MAGI3_2 PDZ (Homo sapiens, UniProt Q5TCQ9); conditions: composite holdup affinity; 0.00=below quantification threshold; read-out: COMP pKd (converted)
Sequence of MAGI3_2 PDZ (Q5TCQ9 410-492 limits assumed): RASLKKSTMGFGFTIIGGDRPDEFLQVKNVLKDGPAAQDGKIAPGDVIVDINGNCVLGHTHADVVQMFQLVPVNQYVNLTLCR

[23] = molecular target: DLG2_3 PDZ (Homo sapiens, UniProt Q15700); conditions: composite holdup affinity; 0.00=below quantification threshold; read-out: COMP pKd (converted)
Sequence of DLG2_3 PDZ (Q15700 421-501 limits assumed): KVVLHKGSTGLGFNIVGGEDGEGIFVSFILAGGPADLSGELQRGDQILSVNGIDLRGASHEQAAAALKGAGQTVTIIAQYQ

[24] = molecular target: DLG4_2 PDZ (Homo sapiens, UniProt P78352); conditions: composite holdup affinity; 0.00=below quantification threshold; read-out: COMP pKd (converted)
Sequence of DLG4_2 PDZ (P78352 160-246 limits assumed): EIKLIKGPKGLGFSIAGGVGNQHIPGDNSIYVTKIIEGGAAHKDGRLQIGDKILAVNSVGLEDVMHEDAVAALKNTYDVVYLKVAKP

[25] = molecular target: DLG3_2 PDZ (Homo sapiens, UniProt Q92796); conditions: composite holdup affinity; 0.00=below quantification threshold; read-out: COMP pKd (converted)
Sequence of DLG3_2 PDZ (Q92796 226-311 limits assumed): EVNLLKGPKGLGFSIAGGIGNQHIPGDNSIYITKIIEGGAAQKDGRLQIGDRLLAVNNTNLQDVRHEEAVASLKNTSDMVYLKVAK

[26] = molecular target: DLG1_1 PDZ (Homo sapiens, UniProt Q12959); conditions: composite holdup affinity; 0.00=below quantification threshold; read-out: COMP pKd (converted)
[27] = molecular target: SNTA1 PDZ (Homo sapiens, UniProt Q13424); conditions: composite holdup affinity; 0.00=below quantification threshold; read-out: COMP pKd (converted)
Sequence of SNTA1 PDZ (Q13424 87-170 limits assumed): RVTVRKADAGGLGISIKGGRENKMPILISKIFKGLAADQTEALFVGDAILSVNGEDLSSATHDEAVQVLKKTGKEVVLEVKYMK

[28] = molecular target: T3, TX1BP3 PDZ (Homo sapiens, UniProt O14907); conditions: composite holdup affinity; 0.00=below quantification threshold; read-out: COMP pKd (converted)
T3 sequence (O14907 15-112 limits assumed): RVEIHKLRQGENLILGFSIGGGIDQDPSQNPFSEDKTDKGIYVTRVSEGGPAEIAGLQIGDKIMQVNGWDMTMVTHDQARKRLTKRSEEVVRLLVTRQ

[29] = molecular target: DLG3_1 PDZ (Homo sapiens, UniProt Q92796); conditions: composite holdup affinity; 0.00=below quantification threshold; read-out: COMP pKd (converted)
Sequence of DLG3_1 PDZ (Q92796 130-217 limits assumed): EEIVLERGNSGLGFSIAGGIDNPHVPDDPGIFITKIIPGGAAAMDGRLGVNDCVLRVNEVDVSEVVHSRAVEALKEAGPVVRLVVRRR

[30] = molecular target: MAGI2_3 PDZ (Homo sapiens, UniProt Q86UL8); conditions: composite holdup affinity; 0.00=below quantification threshold; read-out: COMP pKd (converted)
Sequence of MAGI2_3 PDZ (Q86UL8 605-683 limits assumed): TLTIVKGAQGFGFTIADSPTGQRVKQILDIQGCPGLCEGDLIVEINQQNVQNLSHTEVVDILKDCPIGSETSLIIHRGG

[31] = molecular target: DLG2_2 PDZ (Homo sapiens, UniProt Q15700); conditions: composite holdup affinity; 0.00=below quantification threshold; read-out: COMP pKd (converted)
Sequence of DLG2_2 PDZ (Q15700 193-279 limits assumed): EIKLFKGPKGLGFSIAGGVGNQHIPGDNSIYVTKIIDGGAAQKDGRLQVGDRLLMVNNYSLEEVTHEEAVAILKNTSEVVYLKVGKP

[32] = molecular target: DLG4_1 PDZ (Homo sapiens, UniProt P78352); conditions: composite holdup affinity; 0.00=below quantification threshold; read-out: COMP pKd (converted)
Sequence of DLG4_1 PDZ (P78352 65-151): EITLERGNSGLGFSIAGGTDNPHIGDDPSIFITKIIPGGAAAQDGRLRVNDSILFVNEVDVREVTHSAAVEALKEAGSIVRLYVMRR

[33] = molecular target: PDZRN3_1 PDZ (Homo sapiens, UniProt Q9UPQ7); conditions: composite holdup affinity; 0.00=below quantification threshold; read-out: COMP pKd (converted)
Sequence of PDZRN3_1 PDZ (Q9UPQ7 249-339 limits assumed): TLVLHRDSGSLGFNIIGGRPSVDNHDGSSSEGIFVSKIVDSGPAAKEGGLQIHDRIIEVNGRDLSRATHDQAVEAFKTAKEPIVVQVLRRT

[34] = molecular target: DLG1_3 PDZ (Homo sapiens, UniProt Q12959); conditions: composite holdup affinity; 0.00=below quantification threshold; read-out: COMP pKd (converted)
[35] = molecular target: GIPC1 PDZ (Homo sapiens, UniProt O14908); conditions: sheet PPI_convert; read-out: affinity to PDZ GIPC1 (converted)
Sequence of GIPC1 PDZ (O14908 133-213 limits assumed): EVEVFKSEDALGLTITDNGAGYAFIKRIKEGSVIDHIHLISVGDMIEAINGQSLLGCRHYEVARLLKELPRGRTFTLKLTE
Description: Supplement 41467_2022_33018_MOESM4_ESM.xlsx, sheet "PPI_convert" | column: GIPC1

[36] = molecular target: DLG1_2 PDZ (Homo sapiens, UniProt Q12959); conditions: composite holdup affinity; 0.00=below quantification threshold; read-out: COMP pKd (converted)

Sequence of FRMPD2_2 PDZ (Q68DX3 950-1035 limits assumed): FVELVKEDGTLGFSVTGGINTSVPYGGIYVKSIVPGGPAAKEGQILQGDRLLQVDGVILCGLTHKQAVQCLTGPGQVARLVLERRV

Sequence | Kd [1] [µM] | Kd [2] [µM] | Kd [3] [µM] | Kd [4] [µM] | Kd [5] [µM] | Kd [6] [µM] | Kd [7] [µM] | Kd [8] [µM] | Kd [9] [µM] | Kd [10] [µM] | Kd [11] [µM] | Kd [12] [µM] | Kd [13] [µM] | Kd [14] [µM] | Kd [15] [µM] | Kd [16] [µM] | Kd [17] [µM] | Kd [18] [µM] | Kd [19] [µM] | Kd [20] [µM] | further results
RHTTSTETAV [HPV30-E6] | 58.9 | 34.7 | 11.5 | 72.4 | 7.94 | 44.7 | 21.4 | 4.37 | 170 | 9.12 | 14.5 | 49 | 63.1 | 6.76 | 110 | 17.4 | 7.76 | 83.2 | 79.4 | 13.5 | Kd [21]: 44.7 µM; Kd [22]: 4.37 µM; Kd [23]: 16.2 µM; Kd [24]: 3.55 µM; Kd [25]: 3.89 µM; Kd [26]: 11.7 µM; Kd [27]: 19.1 µM; Kd [28]: 22.4 µM; Kd [29]: 35.5 µM; Kd [30]: 26.9 µM; Kd [31]: 6.46 µM; Kd [32]: 12 µM; Kd [33]: 20.9 µM; Kd [34]: 40.7 µM; Kd [35]: 20 µM; Kd [36]: 2.34 µM
RTRQRNETQV [HPV51-E6] | 389 | 204 | 105 | 191 | 81.3 | 17.8 | 60.3 | 9.55 | 245 | 0.219 | 8.71 | 75.9 | 186 | 1.55 | 234 | 27.5 | 40.7 | 200 | 132 | 67.6 | Kd [21]: 204 µM; Kd [22]: 1.48 µM; Kd [23]: 17.8 µM; Kd [24]: 10.2 µM; Kd [25]: 7.94 µM; Kd [26]: 16.6 µM; Kd [27]: 58.9 µM; Kd [28]: 74.1 µM; Kd [29]: 52.5 µM; Kd [30]: 95.5 µM; Kd [31]: 10.7 µM; Kd [32]: 12.6 µM; Kd [33]: 87.1 µM; Kd [34]: 28.8 µM; Kd [35]: 7.94 µM; Kd [36]: 7.41 µM
